# Source: patent US6806230B1, “Pyrimidine derivatives and herbicides containing them” (Kumiai Chemical Industry Co., Ltd., priority 1999, dated 2004)
# How the values were obtained:
# Assay type in all cases: in vivo
# barnyard grass (Eo) [1] = assay: Test Example 1: herbicidal effects by flooded paddy field treatment; set-up: herbicidal effects, Eo (barnyard grass):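 0-5 growth inhibition grade; 5 = over 90%; 4 = 70-90%; 3 = 50-70%; 2 = 30-50%; 1 = 10-30%; 0 = under 10%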; conditions: for herbicidal effects, Eo (barnyard grass): dose 100 g active ingredient per 10 ares, examined on the 21st day after treatment, standards of Table 44;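 as to Herbicidal effect index, Eo: 0-5 growth inhibition grade; 5 = over 90%; 4 = 70-90%; 3 = 50-70%; 2 = 30-50%; 1 = 10-30%; 0 = under 10%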
# In short: (§1)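 Seeds were sown in puddled paddy soil in pots and flooded to 3 cm. The next day a water-diluted wettable powder was dripped onto the water surface at 100 g active ingredient per 10 ares. Plants grew in a greenhouse, and herbicidal effect was scored on a rating scale 21 days after treatment.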
# barnyard grass (Ec) [2] = assay: Test Example 2: herbicidal effects by upland soil treatment; set-up: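 0-5 growth inhibition grade; 5 = over 90%; 4 = 70-90%; 3 = 50-70%; 2 = 30-50%; 1 = 10-30%; 0 = under 10%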; conditions: dose 100 g active ingredient per 10 ares, examined on the 21st day after treatment
# In short: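 Pre-emergence test: barnyard grass and green foxtail sown in upland soil, then soil surface sprayed with wettable-powder formulation at 100 g active ingredient per 10 ares (100 l per 10 ares). Grown in greenhouse; herbicidal effect scored on a rating scale 21 days after treatment.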
# barnyard grass (Ec) [3] = assay: Test Example 3: herbicidal effects by foliage treatment in upland field; set-up: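 0-5 growth inhibition grade; 5 = over 90%; 4 = 70-90%; 3 = 50-70%; 2 = 30-50%; 1 = 10-30%; 0 = under 10%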; conditions: dose 100 g active ingredient per 10 ares, examined on the 14th day after treatment
# Method: In a 80 cm^2 plastic pot, upland soil was filled, and seeds of barnyard grass (Ec) and green foxtail (Se) were sown and cultured in a green house for 2 weeks. Then, a wettable powder prepared in accordance with Formulation Example 1 was diluted with water and applied to the entire foliage from above the plants by means of a small size spray at a rate of 100 l per 10 ares so that the dose of the active ingredient would be 100 g per 10 ares. Thereafter, cultivation was carried out in a green house, and on the 14th day after the treatment, the herbicidal effects were examined in accordance with the standards of Table 44.
# monochoria (Mo) [4] = assay: Test Example 1: herbicidal effects by flooded paddy field treatment; set-up: herbicidal effects, Mo (monochoria):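 0-5 growth inhibition grade; 5 = over 90%; 4 = 70-90%; 3 = 50-70%; 2 = 30-50%; 1 = 10-30%; 0 = under 10%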; conditions: for herbicidal effects, Mo (monochoria): dose 100 g active ingredient per 10 ares, examined on the 21st day after treatment, standards of Table 44;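 as to Herbicidal effect index, Mo: 0-5 growth inhibition grade; 5 = over 90%; 4 = 70-90%; 3 = 50-70%; 2 = 30-50%; 1 = 10-30%; 0 = under 10%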
# In short: as §1
# rice (Or) = assay: Test Example 4: selectivity for a crop plant by flooded paddy field treatment; set-up: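 0-5 phytotoxicity grade; 5 = over 90%; 4 = 70-90%; 3 = 50-70%; 2 = 30-50%; 1 = 10-30%; 0 = under 10%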; conditions: rice transplanted at second leaf stage, dose 25 gai/10a, 21st day after treatment, index per Table 44
# In short: (§2)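 Paddy soil in pots was puddled, weed seeds were sown, second-leaf-stage rice was transplanted, and the pots were flooded to 3 cm. The next day a water-diluted wettable powder was dropped onto the water surface at 25 g active ingredient per 10 ares. Herbicidal effect was scored on a rating scale 21 days after treatment in a greenhouse.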
# barnyard grass (Eo) [5] = assay: as above; set-up: scale not given here; conditions: barnyard grass, dose 25 gai/10a, 21st day after treatment, index per Table 44
# In short: as §2
# monochoria (Mo) [6] = assay: as above; set-up: scale not given here; conditions: monochoria, dose 25 gai/10a, 21st day after treatment, index per Table 44
# In short: as §2
# [7] = dose 100 gai/10a, examined on 21st day after treatment, index 0-5 per Table 44
SMILES,"herbicidal effects, Eo (barnyard grass) (barnyard grass (Eo) [1])","Ec (herbicidal effects, index) (barnyard grass (Ec) [2])","Ec (herbicidal effects, index) (barnyard grass (Ec) [3])","herbicidal effects, Mo (monochoria) (monochoria (Mo) [4])","Herbicidal effect index, Eo (barnyard grass (Eo) [1]; [7])","Herbicidal effect index, Mo (monochoria (Mo) [4]; [7])",Or (herbicidal effect index on crop) (rice (Or)),Eo (herbicidal effect index) (barnyard grass (Eo) [5]),Mo (herbicidal effect index) (monochoria (Mo) [6])
CC(C)C(c1cncnc1C(F)(F)F)N(C)C(=O)N(C)c1ccc(F)cc1 (racemic) [1-426],5,5,4,5,,,,,
C#CCN(C(=O)Cc1ccc(C)cc1)C(c1cncnc1CCC)C(C)C (racemic) [1-619],,5,4,,,,,,
COCC(c1cncnc1C(C)C)N(C)C(=O)C(C)c1ccc(Cl)cc1 (mixture of isomers) [1-586],5,5,5,5,,,,,
CN(C(=O)Cc1ccc(F)cc1)C(c1cncnc1C(F)(F)F)C1(C)CC1 (racemic) [1-410],5,5,4,5,,,,,
CCOc1ncncc1C(C(C)C)N(C)C(=O)Cc1ccc(Cl)cc1 (racemic) [1-661],,,5,,,,,,
Cc1ccc(N(C)C(=O)N(C)C(c2cncnc2C(F)(F)F)C(C)C)cc1 (racemic) [1-428],5,5,4,5,,,,,
CON(C(=O)Cc1ccc(Cl)cc1)C(c1cncnc1C(F)(F)F)C(C)C (racemic) [1-407],5,5,4,5,,,,,
CCC(C)C(c1cncnc1C(F)(F)F)N(C)C(=O)Cc1cccc(F)c1 (mixture of isomers) [Compound 1-267],5,5,4,5,,,,,
CCCC(c1cncnc1C(C)C)N(C)C(=O)Cc1ccc(F)cc1 (racemic) [1-450],5,5,4,5,,,,,
CC(C)C(c1cncnc1C(F)(F)F)N(C)C(=O)N(C)c1ccccc1F (racemic) [1-536],5,5,4,5,,,,,
CCc1ncncc1C(C(C)C)N(C)C(=O)Oc1ccc(Cl)cc1 (racemic) [1-642],,4,4,,,,,,
O=C(Cc1ccccc1)NC(c1cncnc1C(F)(F)Cl)C1CC1 (racemic) [Compound 1-1],,,4,,,,,,
C#CCN(C(=O)Cc1ccc(F)cc1)C(c1cncnc1CCC)C(C)C (racemic) [1-617],,5,4,,,,,,
C#CCN(C(=O)Cc1ccc(F)cc1)C(c1cncnc1C(C)C)C(C)C (racemic) [1-622],,4,4,,,,,,
CC(C)c1ncncc1C(C(C)C)N(C)C(=O)Cc1ccc(F)cc1 (racemic) [Compound 1-129],5,,5,5,,,,,
C#CCN(C(=O)Cc1ccsc1)C(c1cncnc1C(C)C)C(C)C (racemic) [2-79],,5,4,,,,,,
CCCC(c1cncnc1C(F)(F)F)N(C)C(=O)Cc1ccccc1 (racemic) [Compound 1-111],,,4,,5,4,,,
CC(C(=O)N(C)C(c1cncnc1C#N)C(C)C)c1ccc(Cl)cc1 (mixture of isomers) [1-508],,5,4,,,,,,
C#CCN(C(=O)Cc1ccc(C)cc1)C(c1cncnc1C(C)C)C(C)C (racemic) [1-624],5,5,,5,,,1,5,5
CC(C)C(c1cncnc1C(F)(F)F)N(C)S(=O)(=O)c1ccc(Cl)cc1 (racemic) [4-1],5,5,,5,,,1,5,5
CON=CC(c1cncnc1C(C)C)N(C)C(=O)Cc1ccc(C)cc1 (racemic) [1-465],5,5,,5,,,0,5,5
Cc1ccc(CC(=O)N(C)C(c2ccsc2)c2cncnc2C(F)(F)F)cc1 (racemic) [1-443],5,5,,5,,,1,5,5
CCN(C(=O)Cc1ccc(Cl)cc1F)C(c1cncnc1C(F)(F)F)C(C)C (racemic) [1-321],5,5,,5,,,1,5,5
CN(C(=O)Cc1ccc(C(F)(F)F)cc1)C(c1ccccc1)c1cncnc1C(F)(F)F (racemic) [1-306],5,5,,5,,,1,5,5
CN(C(=O)Cc1ccc(Cl)s1)C(c1ccccc1)c1cncnc1C(F)(F)F (racemic) [2-31],5,5,,5,,,0,5,5
C#CCN(C(=O)Cc1ccc(Cl)s1)C(c1cncnc1CC)C(C)C (racemic) [2-73],5,5,,5,,,1,5,5
CC(C)C(c1cncnc1C(F)(F)F)N(C)C(=O)Cc1cc(F)cc(F)c1F (racemic) [1-444],5,5,,5,,,1,5,5
Cc1ccc(CC(=O)N(CC#N)C(c2cncnc2C(F)(F)F)C(C)C)cc1 (racemic) [1-483],5,5,,5,,,1,5,5
